The subject of data set [1] is greenhouse red spider mite (Tetranychus urticae). In words: Tetranychus Test (OP-resistant/dip Treatment). Particulars: bean plants dipped, OP-resistant, concentration of active compound 100 ppm.
Description: Emulsifier: 1 part by weight of alkylaryl polyglycol ether
After the desired period of time, the kill in % is determined. 100% means that all spider mites have been killed; 0% means that none of the spider mites have been killed.
In data set [2] the test system is larvae of the mustard beetle (Phaedon cochleariae). Nature of the data set: Phaedon Larvae Test. Type of data set: in vivo. The conditions noted are these: cabbage leaves dipped, concentration of active compound 1000 ppm. An excerpt:
(§1) Solvent: 30 parts by weight of acetone

In another data set the test system is Alternaria solani. In words: Alternaria Test (Tomato)/protective. Type of data set: in vivo. The conditions noted are these: protective, application rate 750 g/ha, evaluation 7 days after inoculation. The procedure:
Alternaria Test (Tomato)/protective
To test for protective activity, young tomato plants are sprayed with the preparation of active compound at the stated application rate. 1 day after the treatment, the plants are inoculated with a spore suspension of Alternaria solani and then remain at 100% rel. humidity and 20° C. for 24 h. The plants then remain at 96% rel. atmospheric humidity and a temperature of 20° C.
Evaluation is carried out 7 days after the inoculation. 0% means an efficacy which corresponds to that of the control, whereas an efficacy of 100% means that no infection is observed.

The subject of a further data set is Leptosphaeria nodorum. Nature of the data set: Leptosphaeria nodorum Test (Wheat)/protective. Type of data set: in vivo. Particulars: protective, application rate 750 g/ha, evaluation 12-14 days after inoculation. How it is done:
Leptosphaeria nodorum Test (Wheat)/protective
To test for protective activity, young wheat plants are sprayed with the preparation of active compound at the stated application rate. 1 day after the treatment, the plants are inoculated with an aqueous spore suspension of Leptosphaeria nodorum and then remain at 100% rel. atmospheric humidity and 20° C. for 48 h. The plants are then placed in a greenhouse at 80% rel. atmospheric humidity and a temperature of 22° C.
Evaluation is carried out 12-14 days after the inoculation. 0% means an efficacy which corresponds to that of the control, whereas an efficacy of 100% means that no infection is observed.

The test system of another data set is Plasmopara viticola. Nature of the data set: Plasmopara Test (Grapevine)/protective. The conditions noted are these: protective, application rate 100 g/ha, evaluation 6 days after inoculation. Type of data set: in vivo. The procedure: Plasmopara Test (Grapevine)/protective
To test for protective activity, young plants are sprayed with the preparation of active compound at the stated application rate. After the spray coating has dried on, the plants are inoculated with an aqueous spore suspension of Plasmopara viticola and then remain in an incubation cabinet at about 20° C. and 100% relative atmospheric humidity for 1 day. The plants are then placed in a greenhouse at about 21° C. and about 90% relative atmospheric humidity for 5 days. The plants are then moistened and placed in an incubation cabin for 1 day.
Evaluation is carried out 6 days after the inoculation. 0% means an efficacy which corresponds to that of the control, whereas an efficacy of 100% means that no infection is observed.

The next data set concerns Pyricularia oryzae. Type of data set: in vivo. The conditions noted are these: rice, protective, application rate 125 g/ha, evaluation 7 days after inoculation.
In data set [3] the test system is caterpillars of the armyworm (Spodoptera frugiperda). In words: Spodoptera frugiperda Test. Type of data set: in vivo. The conditions noted are these: cabbage leaves dipped, concentration of active compound 1000 ppm.
Text: Spodoptera frugiperda Test
as §1

The test system of the next data set is Podosphaera leucotricha. Nature of the data set: Podosphaera Test (Apple)/protective. Type of data set: in vivo. The conditions noted are these: protective, application rate 100 g/ha, evaluation 10 days after inoculation. How it is done:
Podosphaera Test (Apple)/protective
To test for protective activity, young plants are sprayed with the preparation of active compound at the stated application rate. After the spray coating has dried on, the plants are inoculated with an aqueous spore suspension of the apple mildew pathogen Podosphaera leucotricha. The plants are then placed in a greenhouse at about 23° C. and a relative atmospheric humidity of about 70%.
(§2) Evaluation is carried out 10 days after the inoculation. 0% means an efficacy which corresponds to that of the control, whereas an efficacy of 100% means that no infection is observed.

The test system of the next data set is Sphaerotheca fuliginea. Nature of the data set: Sphaerotheca Test (Cucumber)/protective. Type of data set: in vivo. The conditions noted are these: protective, application rate 100 g/ha, evaluation 10 days after inoculation. How it is done:
Sphaerotheca Test (Cucumber)/protective
To test for protective activity, young plants are sprayed with the preparation of active compound at the stated application rate. After the spray coating has dried on, the plants are inoculated with an aqueous spore suspension of Sphaerotheca fuliginea. The plants are then placed in a greenhouse at about 23° C. and a relative atmospheric humidity of about 70%.
as §2

Data set [4] has as its system green peach aphid (Myzus persicae). In words: Myzus test. The conditions noted are these: broad bean seedlings dipped, concentration of active compound 1000 ppm. Type of data set: in vivo.
Text: as §1

Structures are written as SMILES.

Data on one compound can be found in patent publication US6562856B1, “Pyrazolyl benzyl ether deriviatives having a fluoromethoxy group and the use thereof as pesticides” (Bayer Aktiengesellschaft, priority 1999, dated 2003).

Broadly, the chromatographic logP is a lipophilicity value derived from retention on a column. A higher chromatographic logP goes with a more lipophilic compound. With `COC(=O)C(=COCF)c1ccccc1COc1ccn(-c2ccc(Cl)cc2)n1` [Example 1, methyl 2-[2-({[1-(4-chlorophenyl)-1H-pyrazol-3-yl]oxy}methyl)phenyl]-3-(fluoromethoxy)-2-acrylate], the chromatographic logP was determined as 3.91. The kill rate in [1] is reported as 90%. The kill rate in [2] came to 100%. Besides, the efficacy in the data set with Alternaria solani was ≥ 80%. The efficacy with Leptosphaeria nodorum is recorded as ≥ 98%. In the data set on Plasmopara viticola, the efficacy is given as ≥ 98%. Also, the efficacy in the data set with Pyricularia oryzae is reported as ≥ 80%. In data set [3], this compound gave a kill rate of 100%. Further, the efficacy in the data set on Podosphaera leucotricha is ≥ 98%. In addition, the efficacy with Sphaerotheca fuliginea is on record as ≥ 98%. The compound further returned a kill rate in data set [4] of 100%.
